The source of these data is patent US20180036439A1, “COUPLED IDENTIFICATION AND TREATMENT OF CANCER” (priority 2009, published 2018).

Common to all, as to type: in vivo, human
The nature of data set [1]: tolerability of Nexavar treatment in the subject with primary liver cancer. To be noted: 800 mg/day, terminated after about 10 weeks; one patient. As to the method: (§1) The subject of this study was a person who was diagnosed with non-resectable primary liver cancer (hepatocellular carcinoma). The diagnosis was based on results of x-ray CT scans and tumor biopsy. Within two weeks of diagnosis the subject began treatment with Nexavar® (sorafenib) at a dose of 800 mg/day.

In data set [2] the test system is liver tumors (hepatocellular carcinoma). The data set is described as follows: gallium scan (planar and SPECT) after intravenous ^67Ga citrate. The following applies: 134 MBq ^67Ga citrate i.v., one patient. The procedure: Very briefly, a gallium scan is performed by administering a small amount of a gallium radioisotope (usually ^67Ga) to a subject and then scanning the subject to map the distribution of resulting radioactivity in the body; the amount of radioactivity will be directly proportional to the uptake of gallium. Scanning is performed on the whole body or portions of the body using a scintillation detector or other suitable radiation detector.
Scanning is performed using a scintillation detector or another detector that is sensitive to the radiation produced by the gallium radioisotope (e.g., gamma rays for ^67Ga). For ^67Ga, a multipeak gamma camera with a large field of view and head shielding is commonly used. Scans may be either planar (two-dimensional (2-D) imaging) or as multiple tomographic scans leading to three-dimensional (3-D) imaging. The latter scans generally employ single-photon emission computerized tomography (SPECT or SPET), which may provide higher contrast and localization than planar images alone.
Planar and SPECT images were obtained 48 hours after ^67Ga citrate administration. […] At that time the subject was experiencing moderate nausea, anorexia, and fatigue, with severe pain and tenderness of the right abdomen that prevented the subject from lying on their right side.

The test system of data set [3] is non-resectable primary liver cancer (hepatocellular carcinoma). Briefly: oral gallium maltolate treatment of a subject with primary liver cancer. To be noted: one patient. As to the method:
as §1
Based on the high avidity of the subject's hepatocellular carcinoma for gallium, as shown by the gallium scans, treatment of the patient with orally administered gallium maltolate was initiated. Treatment was started about a week after the gallium scans were performed. Gallium maltolate was administered as two 750 mg tablets taken once per day before breakfast (for a dose of 1500 mg/day). The largest tumor was about 20 cm in diameter by CT scan at three weeks before gallium maltolate administration was started.
The patient reported that their right abdominal pain was nearly gone, and they could lie and sleep on their right side.

The mark [4] stands for this setting: about four months into treatment, 1500 mg/day oral.
The mark [5] stands for this setting: two weeks after start of 1500 mg/day oral.

Structures are written as SMILES.

As for `CNC(=O)c1cc(Oc2ccc(NC(=O)Nc3ccc(Cl)c(C(F)(F)F)c3)cc2)ccn1` [Nexavar®, sorafenib], in data set [1], the “adverse effects that led to termination of treatment” value was “severe peripheral neuropathy, nausea, fatigue, gastrointestinal disorders, and anorexia”.

As for `O=C([O-])CC(O)(CC(=O)[O-])C(=O)[O-].[67Ga+3]` [^67Ga citrate], the “gallium uptake in the surrounding liver tissue and in other organs” value in data set [2] (images 48 hours after administration) is “very low uptake”. In data set [2] (planar and SPECT images 48 hours after administration), the “gallium uptake in the liver tumors, average counts per second relative to surrounding healthy liver tissue” value is reported as “twenty to fifty”.

In the case of `Cc1occc(=O)c1[O-].Cc1occc(=O)c1[O-].Cc1occc(=O)c1[O-].[Ga+3]` [gallium maltolate, tris(3-hydroxy-2-methyl-4H-pyran-4-onato)gallium], in data set [3] (setting [4]), the “state of the primary tumor by CT scan” value was “apparent necrosis of the primary tumor” and the “tumor growth by CT scan” value was “no new tumor growth”. Further, the “patient's condition” value in data set [3] (over the next six months of treatment, 1500 mg/day oral) is “continued to improve”. The “serum bilirubin (total)” value in data set [3] (two weeks after start of 1500 mg/day oral, before treatment 27.5, normal 2-20) was found to be 11.9 µmol/L. Moreover, in data set [3] (two weeks after start of 1500 mg/day oral, before treatment 132, normal 0-40), the “serum AST” value came to 70 IU/L. Further, in data set [3] (setting [5]), the “ability to engage in normal activities” value was “substantially increased” and the “right abdominal pain (patient report)” value was “nearly gone”.
